Measurements from patent US9700546B2, “Trivalent chromium compounds, compositions and methods of use” (INTERHEALTH NUTRACEUTICALS, INC., priority 2006, dated 2017).
Where two headings read alike, the source gives them in different places.

Key:
Obese Zucker rats [1] = test: In vivo assessment in obese Zucker rats: clinical chemistry (AP, BUN, CRT, AST, ALT); settings: obese Zucker rats; mean ± SE
Obese Zucker rats [2] = test: In vivo assessment in obese Zucker rats: blood lipid profile (total cholesterol, triglycerides, HDL); settings: daily 400 μg Cr(III)/kg, 8 weeks, mean
insulin = settings: in vitro; cited from earlier work
Obese Zucker rats [3] = test: In vivo assessment in obese Zucker rats: vascular inflammation markers (MCP-1, CRP, RBP-4, leptin, ICAM, adiponectin); settings: obese Zucker rats, daily 400 μg Cr(III)/kg, 8 weeks, mean; for Adiponectin / CRP / ICAM / MCP-1: plasma, ELISA
Obese Zucker rats [4] = test: In vivo assessment in obese Zucker rats: body weight and food intake; settings: obese Zucker rats, daily 400 μg Cr(III)/kg, mean; for Food Intake 5 wks: at 5 weeks; for Food Intake 7 wks: at 7 weeks
Obese Zucker rats [5] = test: In vivo assessment in obese Zucker rats: other vascular inflammation markers (cAMP, TNFα, IL-6, OxyDNA); settings: obese Zucker rats, daily 400 μg Cr(III)/kg, 8 weeks, mean ± SE; for OxyDNA: oxidative DNA damage
Obese Zucker rats [6] = test: In vivo assessment in obese Zucker rats: key biological parameters (fasting glucose, HbA1c, vitamin C, GSH, RBC lipid peroxidation); settings: obese Zucker rats, daily 400 μg Cr(III)/kg, 8 weeks, mean; for RBC Lipid Peroxidase: malondialdehyde by thiobarbituric acid; for Fasting Glucose: fasted overnight; for Vitamin C: plasma
yeast = settings: Cooper et al. 1984; cited from earlier work
[7] = cited from earlier work; for chromium absorbed (average): men and women
Obese Zucker rats [8] = settings: rat, in vivo
[9] = typical; cited from earlier work

Row | Compound | HDL (Obese Zucker rats [2]) | Total Cholesterol (Obese Zucker rats [2]) | Triglyceride (Obese Zucker rats [2]) | Leptin (Obese Zucker rats [3]) | RBP-4 (Obese Zucker rats [3]) | Adiponectin (Obese Zucker rats [3]) | CRP (Obese Zucker rats [3]) | ICAM (Obese Zucker rats [3]) | MCP-1 (Obese Zucker rats [3]) | Food Intake 5 wks (Obese Zucker rats [4]) | Food Intake 7 wks (Obese Zucker rats [4]) | IL-6 (Obese Zucker rats [5]) | cAMP (Obese Zucker rats [5]) | OxyDNA (Obese Zucker rats [5]) | RBC Lipid Peroxidase (Obese Zucker rats [6]) | Fasting Glucose (Obese Zucker rats [6]) | GSH (Obese Zucker rats [6]) | HbA1c (Obese Zucker rats [6]) | Vitamin C (Obese Zucker rats [6]) | TNFα (Obese Zucker rats [5]) | also measured
1 | O=C(O)c1cccnc1 [Niacin, reference compound] | 70.33 mg/dL | 192.17 mg/dL | 486.67 mg/dL | 363.96 pg/mL | 53945.00 ng/mL | 8872.00 ng/mL | 548.27 ng/mL | 16855.83 pg/mL | 1365.66 pg/mL | 37.92 g/day | 39.67 g/day | 93.76 ± 1.60 pg/mL | 34.27 ± 1.47 pmol/mL | 47.31 ± 2.78 ng/mL | 1.82 nmol/mL | 543.00 mg/dL | 5.32 µmol/g | 15.60% | 0.15 mg % |  | ALT (Alanine Aminotransferease) (Obese Zucker rats [1]): 126.17 u/L; BUN (Blood Urea Nitrogen) (Obese Zucker rats [1]): 19.33 mg/dL; CRT (Creatinine) (Obese Zucker rats [1]): 0.40 mg/dL; potentiation of the action of insulin (insulin): virtually no effect
2 | NC(=O)CCC(N)C(=O)[O-].NC(=O)CCC(N)C(=O)[O-].O.O.[Cr+3] (stereo not drawn) [Cr(glutamine)2(H2O)2^+] |  |  |  |  |  |  |  |  |  |  |  |  |  |  |  |  |  |  |  |  | glucose tolerance factor activity in yeast assay (yeast): significant activity
3 | Chromium Histidinate [CrHis, reference compound] | 66.90 mg/dL | 189.62 mg/dL | 503.93 mg/dL | 436.96 pg/mL | 51112.60 ng/mL | 11455.87 ng/mL | 710.26 ng/mL |  | 2974.79 pg/mL |  |  | 91.98 ± 8.19 pg/mL | 28.07 ± 2.83 pmol/mL | 57.72 ± 2.86 ng/mL | 1.91 nmol/mL | 592.01 mg/dL | 4.68 µmol/g | 15.89% |  | 24.72 ± 5.24 pg/mL | ALT (Alanine Aminotransferease) (Obese Zucker rats [1]): 168.25 u/L; AP (Alkaline phosphatase) (Obese Zucker rats [1]): 35.25 u/L; AST (Aspartate Aminotransferase) (Obese Zucker rats [1]): 248.00 u/L; Anion Gap (Obese Zucker rats [1]): 29.75; BUN (Blood Urea Nitrogen) (Obese Zucker rats [1]): 19.50 mg/dL; BUN/CRT Ratio (Obese Zucker rats [1]): 48.75; CRT (Creatinine) (Obese Zucker rats [1]): 0.40 mg/dL; Total Bilirubin (Obese Zucker rats [1]): 0.10 mg/dL; Total Chol/HDL (Obese Zucker rats [2]): 2.86 ratio; chromium absorbed (average) [7]: 3.1 µg; absorbed better than chromium picolinate ([7]; relative to chromium picolinate): at least 50%
4 | Chromium Picolinate [CrP, reference compound] | 66.01 mg/dL | 191.80 mg/dL | 625.35 mg/dL | 399.55 pg/mL | 49236.91 ng/mL | 11229.84 ng/mL | 654.78 ng/mL | 20428.47 pg/mL | 4549.99 pg/mL | 35.85 g/day | 40.79 g/day | 94.13 ± 2.47 pg/mL | 29.17 ± 2.00 pmol/mL | 49.02 ± 2.31 ng/mL | 2.05 nmol/mL | 527.28 mg/dL | 4.84 µmol/g | 15.54% | 0.15 mg % | 33.66 ± 5.27 pg/mL | Total Chol/HDL (Obese Zucker rats [2]): 3.02 ratio; ALT (Alanine Aminotransferease) (Obese Zucker rats [8]): 179.78 u/L; AP (Alkaline phosphatase) (Obese Zucker rats [8]): 40.06 u/L; AST (Aspartate Aminotransferase) (Obese Zucker rats [8]): 362.44 u/L; Anion Gap (Obese Zucker rats [8]): 29.61; BUN (Blood Urea Nitrogen) (Obese Zucker rats [8]): 20.22 mg/dL; BUN/CRT Ratio (Obese Zucker rats [8]): 49.72; CRT (Creatinine) (Obese Zucker rats [8]): 0.41 mg/dL; Total Bilirubin (Obese Zucker rats [8]): 0.07 mg/dL; chromium absorbed (average) [7]: 1.8 µg
5 | NC(C[S-])C(=O)[O-].NC(C[S-])C(=O)[O-].[Cr+3] (stereo not drawn) [Cr(cysteine)2^−] |  |  |  |  |  |  |  |  |  |  |  |  |  |  |  |  |  |  |  |  | glucose tolerance factor activity in yeast assay (yeast): not active
6 | N[C@@H](CS)C(=O)O [Cys, Cysteine, reference compound] | 68.26 mg/dL | 183.58 mg/dL | 503.57 mg/dL | 477.65 pg/mL | 50915.00 ng/mL | 11532.37 ng/mL | 551.39 ng/mL | 18512.88 pg/mL |  | 39.40 g/day | 39.87 g/day | 95.33 ± 2.33 pg/mL | 32.94 ± 1.79 pmol/mL | 54.56 ± 5.69 ng/mL | 2.34 nmol/mL | 483.49 mg/dL | 4.70 µmol/g | 15.17% | 0.13 mg % | 24.28 ± 3.84 pg/mL | ALT (Alanine Aminotransferease) (Obese Zucker rats [8]): 119.20 u/L; AP (Alkaline phosphatase) (Obese Zucker rats [8]): 36.40 u/L; AST (Aspartate Aminotransferase) (Obese Zucker rats [8]): 218.20 u/L; BUN (Blood Urea Nitrogen) (Obese Zucker rats [8]): 18.50 mg/dL; CRT (Creatinine) (Obese Zucker rats [8]): 0.42 mg/dL; Total Bilirubin (Obese Zucker rats [8]): 0.00 mg/dL
7 | N=C(N)NCCC[C@H](N)C(=O)O [Arg, Arginine, reference compound] | 68.69 mg/dL | 173.96 mg/dL | 485.74 mg/dL | 431.72 pg/mL | 47211.67 ng/mL | 9958.63 ng/mL | 617.34 ng/mL | 17940.91 pg/mL | 3878.85 pg/mL | 37.73 g/day | 46.80 g/day | 97.80 ± 0.93 pg/mL | 34.98 ± 0.92 pmol/mL | 62.90 ± 2.71 ng/mL | 2.23 nmol/mL | 446.60 mg/dL | 4.77 µmol/g | 15.88% | 0.14 mg % | 25.45 ± 0.93 pg/mL | Total Chol/HDL (Obese Zucker rats [2]): 2.86 ratio; ALT (Alanine Aminotransferease) (Obese Zucker rats [8]): 179.20 u/L; AP (Alkaline phosphatase) (Obese Zucker rats [8]): 35.50 u/L; AST (Aspartate Aminotransferase) (Obese Zucker rats [8]): 276.80 u/L; BUN (Blood Urea Nitrogen) (Obese Zucker rats [8]): 21.00 mg/dL; CRT (Creatinine) (Obese Zucker rats [8]): 0.40 mg/dL; Total Bilirubin (Obese Zucker rats [8]): 0.00 mg/dL
8 | Cr-nicotinic acid-glycine |  |  |  |  |  |  |  |  |  |  |  |  |  |  |  |  |  |  |  |  | glucose tolerance factor activity in yeast assay (yeast): significant activity
9 | chromium polynicotinate |  |  |  |  |  |  |  |  |  |  |  |  |  |  |  |  |  |  |  |  | chromium absorbed (average) [7]: 0.2 µg
10 | [Cl][Cr]([Cl])[Cl] [chromium chloride] |  |  |  |  |  |  |  |  |  |  |  |  |  |  |  |  |  |  |  |  | absorbed by the body [9]: less than one; chromium absorbed (average) [7]: 0.4 µg
